In US12448391B2, “Bicyclic derivatives for treating endoparasites” (Elanco Tiergesundheit AG, priority 2019, dated 2025):

What was measured:
[1] = system: D. immitis microfilariae; test: Dog heart worm microfilariae motility assay; type: cell-based; conditions: Dirofilaria immitis, read-out: EC50 (motility inhibition)
[2] = system: H. contortus larvae; test: H. contortus Larval Development Assay (Hc LDA); conditions: Haemonchus contortus, read-out: EC50 (motility inhibition)
Description: Ruminant Gastrointestinal (H. contortus Larval Development Assay (Hc LDA)):
H.c. eggs isolated from lamb fecal matter are allowed to hatch overnight. Test compounds are diluted in DMSO and added to a 96-well plate containing appropriate media. H.c. larvae are added to each well and plates are incubated for the desired time(s). Motility is assessed using an LCD camera imaging system. Percent motility inhibition values are generated relative to the average of the DMSO-only wells.

Row | Compound | EC50 [1] [µg/mL] | EC50 [2] [µg/mL]
1 | CN(C)c1c(C(=O)NN2CCOc3ccccc32)cnc2c(-c3cc(Cl)cc(Cl)c3)nccc12 [Example 2.1, 8-(3,5-dichlorophenyl)-N-(2,3-dihydro-1,4-benzoxazin-4-yl)-4-(dimethylamino)-1,7-naphthyridine-3-carboxamide] | < 0.1 | < 1
2 | CN(C)c1c(C(=O)NN2CCCc3ccccc32)cnc2c(-c3cc(Cl)cc(Cl)c3)nccc12 [Example 2.2, 8-(3,5-dichlorophenyl)-N-(3,4-dihydro-2H-quinolin-1-yl)-4-(dimethylamino)-1,7-naphthyridine-3-carboxamide] | < 0.1 | < 1
3 | O=C(NN1CCOc2ccccc21)c1cnc2c(-c3cc(Cl)cc(Cl)c3)nccc2c1N1CCOCC1 [Example 2.3, 8-(3,5-dichlorophenyl)-N-(2,3-dihydro-1,4-benzoxazin-4-yl)-4-morpholino-1,7-naphthyridine-3-carboxamide] | < 0.1 | < 1
4 | O=C(NN1CCOc2ccccc21)c1cnc2c(-c3cc(F)cc(F)c3F)nccc2c1N1CCOCC1 [Example 2.4, N-(2,3-dihydro-1,4-benzoxazin-4-yl)-4-morpholino-8-(2,3,5-trifluorophenyl)-1,7-naphthyridine-3-carboxamide] | < 0.1 | < 1
5 | CON(C)c1c(C(=O)NN2CCOc3ccccc32)cnc2c(-c3cc(F)cc(F)c3F)nccc12 [Example 2.5, N-(2,3-dihydro-1,4-benzoxazin-4-yl)-4-[methoxy(methyl)amino]-8-(2,3,5-trifluorophenyl)-1,7-naphthyridine-3-carboxamide] | < 0.1 | < 1
6 | O=C(NN1CCOc2ccccc21)c1cnc2c(-c3cc(Cl)cc(C(F)(F)F)c3)nccc2c1N1CCOCC1 [Example 2.6, 8-[3-chloro-5-(trifluoromethyl)phenyl]-N-(2,3-dihydro-1,4-benzoxazin-4-yl)-4-morpholino-1,7-naphthyridine-3-carboxamide] | < 0.1 | < 1
7 | O=C(NN1CCOc2ccccc21)c1cnc2c(-c3cccc(Cl)c3Cl)nccc2c1N1CCOCC1 [Example 2.7, N-(2,3-dihydro-1,4-benzoxazin-4-yl)-4-morpholino-8-(2,3-dichlorophenyl)-1,7-naphthyridine-3-carboxamide] | < 0.1 | –
8 | O=C(NN1CCOc2ccccc21)c1cnc2c(-c3cc(Cl)c(F)c(Cl)c3)nccc2c1N1CCOCC1 [Example 2.8, 8-(3,5-dichloro-4-fluoro-phenyl)-N-(2,3-dihydro-1,4-benzoxazin-4-yl)-4-morpholino-1,7-naphthyridine-3-carboxamide] | < 0.1 | < 1
9 | CN(C)c1c(C(=O)NN2CCOc3ccccc32)cnc2c(-c3cc(Cl)cc(Cl)c3)ccnc12 [Example 3.1, 8-(3,5-dichlorophenyl)-N-(2,3-dihydro-1,4-benzoxazin-4-yl)-4-(dimethylamino)-1,5-naphthyridine-3-carboxamide] | < 0.1 | < 1
10 | CN(C)c1c(C(=O)NN2CCOc3ccccc32)cnc2c(-c3cccc(Cl)c3Cl)ccnc12 [Example 3.2, 8-(2,3-dichlorophenyl)-N-(2,3-dihydro-1,4-benzoxazin-4-yl)-4-(dimethylamino)-1,5-naphthyridine-3-carboxamide] | < 0.1 | < 1
11 | O=C(NN1CCOc2ccccc21)c1cnc2c(-c3cc(Cl)cc(Cl)c3)ccnc2c1N1CCOCC1 [Example 3.3, 8-(3,5-dichlorophenyl)-N-(2,3-dihydro-1,4-benzoxazin-4-yl)-4-morpholino-1,5-naphthyridine-3-carboxamide] | < 0.1 | < 1
12 | O=C(NN1CCOc2ccccc21)c1cnc2c(-c3cc(F)cc(F)c3F)ccnc2c1N1CCOCC1 [Example 3.4, N-(2,3-dihydro-1,4-benzoxazin-4-yl)-4-morpholino-8-(2,3,5-trifluorophenyl)-1,5-naphthyridine-3-carboxamide] | < 0.1 | < 1
13 | CN(C)c1c(C(=O)NN2CCOc3ccccc32)ccc2c(-c3cc(Cl)cc(Cl)c3)cccc12 [Example 4.1, 5-(3,5-dichlorophenyl)-N-(2,3-dihydro-1,4-benzoxazin-4-yl)-1-(dimethylamino)naphthalene-2-carboxamide] | < 0.1 | < 1
14 | CN(C)c1c(C(=O)NN2CCOc3ccccc32)cnc2c(-c3cc(Cl)cc(Cl)c3)cccc12 [Example 5.1, 8-(3,5-dichlorophenyl)-N-(2,3-dihydro-4H-benzo[b][1,4]oxazin-4-yl)-4-(dimethylamino)quinoline-3-carboxamide] | < 0.1 | < 1
15 | O=C(NN1CCOc2ccccc21)c1cnc2c(-c3cccc(Cl)c3Cl)cccc2c1N1CCOCC1 [Example 5.2, 8-(2,3-dichlorophenyl)-N-(2,3-dihydro-1,4-benzoxazin-4-yl)-4-morpholino-quinoline-3-carboxamide] | < 0.1 | < 1
16 | O=C(NN1CCOc2ccccc21)c1cnc2c(-c3cc(Cl)cc(Cl)c3)cccc2c1N1CCOCC1 [Example 5.3, 8-(3,5-dichlorophenyl)-N-(2,3-dihydro-1,4-benzoxazin-4-yl)-4-morpholino-quinoline-3-carboxamide] | < 0.1 | < 1
17 | O=C(NN1CCOc2ccccc21)c1cnc2c(-c3cc(F)cc(F)c3F)c(F)ccc2c1N1CCOCC1 [Example 5.4, N-(2,3-dihydro-1,4-benzoxazin-4-yl)-7-fluoro-4-morpholino-8-(2,3,5-trifluorophenyl)quinoline-3-carboxamide] | < 0.1 | < 1
18 | O=C(NN1CCOc2ccccc21)c1cnc2c(-c3cc(F)cc(F)c3F)cccc2c1N1CCOCC1 [Example 5.6, N-(2,3-dihydro-1,4-benzoxazin-4-yl)-4-morpholino-8-(2,3,5-trifluorophenyl)quinoline-3-carboxamide] | < 0.1 | < 1
19 | O=C(NN1CCOc2ccccc21)c1cnc2c(-c3cc(Cl)cc(Cl)c3)c(F)ccc2c1N1CCOCC1 [Example 5.7, 8-(3,5-dichlorophenyl)-N-(2,3-dihydro-1,4-benzoxazin-4-yl)-7-fluoro-4-morpholino-quinoline-3-carboxamide] | < 0.1 | < 1
20 | O=C(NN1CCOc2ccccc21)c1cnc2c(-c3cc(F)cc(F)c3)c(F)ccc2c1N1CCOCC1 [Example 5.8, 8-(3,5-difluorophenyl)-N-(2,3-dihydro-1,4-benzoxazin-4-yl)-7-fluoro-4-morpholino-quinoline-3-carboxamide] | < 0.1 | < 1
21 | O=C(NN1CCOc2ccccc21)c1cnc2c(-c3cc(Cl)nc(C(F)(F)F)c3)cccc2c1N1CCOCC1 [Example 5.11, 8-[2-chloro-6-(trifluoromethyl)-4-pyridyl]-N-(2,3-dihydro-1,4-benzoxazin-4-yl)-4-morpholino-quinoline-3-carboxamide] | < 0.1 | < 1
22 | O=C(NN1CCOc2ccccc21)c1cnc2c(-c3cc(Cl)nc(Cl)c3)cccc2c1N1CCOCC1 [Example 5.12, 8-(2,6-dichloro-4-pyridyl)-N-(2,3-dihydro-1,4-benzoxazin-4-yl)-4-morpholino-quinoline-3-carboxamide] | < 0.1 | < 1
